The record followed here is ChEMBL document CHEMBL1141519, “Pyrogallol and its analogs can antagonize bacterial quorum sensing in Vibrio harveyi” (Bioorg Med Chem Lett, 2008).

Structures are written as SMILES. Active and inactive are the calls of the source. The rule behind the calls is not given here.

The subject of test [1] is Vibrio harveyi. In words: Growth inhibition of Vibrio harveyi assessed as time required to double bacterial growth relative to control. The class given is functional, organism-based.
In test [2] the target is Autoinducer 2-binding periplasmic protein LuxP (Vibrio harveyi, UniProt P54300). In words: Antagonist activity at LuxP receptor in Vibrio harveyi MM32 assessed as inhibition of autoinducer-2-mediated quorum sensing after 3 to 4 hrs. The class given is functional.
Autoinducer 2-binding periplasmic protein LuxP, sequence (P54300 whole entry): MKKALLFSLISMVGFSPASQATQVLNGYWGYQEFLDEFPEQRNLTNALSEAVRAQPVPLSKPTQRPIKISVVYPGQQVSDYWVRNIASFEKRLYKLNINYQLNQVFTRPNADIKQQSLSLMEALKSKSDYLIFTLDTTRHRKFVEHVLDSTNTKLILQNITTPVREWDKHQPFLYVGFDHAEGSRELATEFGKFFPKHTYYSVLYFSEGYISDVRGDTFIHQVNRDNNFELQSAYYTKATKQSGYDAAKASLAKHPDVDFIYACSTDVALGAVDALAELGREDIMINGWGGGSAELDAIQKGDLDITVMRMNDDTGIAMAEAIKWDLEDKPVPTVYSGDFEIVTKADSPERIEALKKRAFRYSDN
Test [3] deals with Vibrio harveyi. In words: Growth inhibition of Vibrio harveyi assessed as time required to double bacterial growth at 20 uM. The class given is functional.

For `Oc1cccnc1O`, the outcome with Vibrio harveyi [1] was inactive.
Usually IC50 stands for the concentration needed to halve the response being measured. With `O=C(c1ccccc1)c1ccc(O)c(O)c1O`, in test [2], the IC50 was found to be 4 µM. Besides, in the test on Vibrio harveyi [1], the outcome was inactive.
As for `N#CC(C#N)=Cc1cc(O)c(O)c(O)c1`, in the test on Vibrio harveyi [1], the result was inactive.
As for `O=C(O)c1cc(O)c(O)c(O)c1` [GALLIC ACID], the IC50 in test [2] came out at 50 µM. The outcome in the test on Vibrio harveyi [1] was inactive.
The matching figures for `O=Cc1cc(O)c(O)c(O)c1`: 12 µM and “inactive”.
In the case of `O[C@@H]1CCC[C@@H]1O`, the outcome in the test with Vibrio harveyi [1] was inactive.
In the case of `CC(=O)c1ccc(O)c(O)c1O` [GALLACETOPHENONE], in test [2], the IC50 was 21 µM. In the test on Vibrio harveyi [1], the outcome was inactive.
Consider `O=c1ccc2ccc(O)c(O)c2o1` [DAPHNETIN], for which the IC50 in test [2] came out at 12 µM. For the same molecule, the result in the test on Vibrio harveyi [1] was inactive.
As to `O=Cc1ccc(O)c(O)c1O`, the IC50 in test [2] turned out to be 4 µM. In addition, in the test on Vibrio harveyi [1], the result was inactive.
Take `Oc1ccccc1O` [CATECHOL]: the IC50 in test [2] was determined as 59 µM. The outcome in the test on Vibrio harveyi [1] was inactive.
Turning to `NCCc1cc(O)c(O)c(O)c1`, the IC50 in test [2] is 22 µM.
Regarding `O=C(O)c1ccc(O)c(O)c1O`, the IC50 in test [2] was 61 µM. Besides, the result in the test on Vibrio harveyi [1] was inactive.
Consider `Oc1cccc(O)c1O` [PYROGALLOL], for which the IC50 in test [2] came to 2 µM. In addition, the Time in the test with Vibrio harveyi [3] stood at 82 min.
Regarding `CCOC(=O)c1oc(C(=O)OCC)c(O)c1O`, the outcome with Vibrio harveyi [1] was inactive.
